Tests used:
[1] = target: T1, ER-α (Homo sapiens, UniProt P03372); assay: Breast Cancer Cell ER-α In Cell Western Assay (SP1); type: cell-based; settings: MCF-7 cells, SP1 antibody, 4 or 24 hr post compound addition; for Emax: MCF7, read-out: ER-α In Cell Western Assay (SP1) Max Response; for DC50: read-out: ER-α In Cell Western Assay (SP1) IC50
T1 sequence (P03372 1-595): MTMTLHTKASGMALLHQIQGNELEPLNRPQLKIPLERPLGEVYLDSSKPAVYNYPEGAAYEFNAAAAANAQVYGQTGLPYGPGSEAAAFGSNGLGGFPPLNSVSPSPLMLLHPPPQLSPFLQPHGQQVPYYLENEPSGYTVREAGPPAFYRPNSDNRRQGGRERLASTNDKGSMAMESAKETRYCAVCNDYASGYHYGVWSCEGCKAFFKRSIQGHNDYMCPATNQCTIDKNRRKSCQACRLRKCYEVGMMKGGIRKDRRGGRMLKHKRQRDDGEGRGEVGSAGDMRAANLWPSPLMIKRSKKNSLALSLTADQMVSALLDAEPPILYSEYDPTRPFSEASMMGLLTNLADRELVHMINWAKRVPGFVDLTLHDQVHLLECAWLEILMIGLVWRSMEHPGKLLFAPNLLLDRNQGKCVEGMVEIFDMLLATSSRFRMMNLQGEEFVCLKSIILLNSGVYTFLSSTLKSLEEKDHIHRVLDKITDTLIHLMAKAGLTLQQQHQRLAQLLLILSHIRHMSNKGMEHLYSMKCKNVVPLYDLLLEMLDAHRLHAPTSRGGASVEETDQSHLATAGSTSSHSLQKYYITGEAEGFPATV
Method: MCF-7 cells were adjusted to a concentration of 200,000 cells per mL in RPMI containing 10% charcoal-stripped FBS and 20 mM HEPES. 16 microliters of the cell suspension (3200 cells) was added to each well of a poly-D-lysine 384 well plate, and the cells were incubated overnight to allow the cells to adhere. The following day an eleven point, serial semilog dilution of each compound was added to the cells in 16 μL at a final concentration ranging from 0.3-0.000003 μM. At 4 or 24 hr post compound addition, the cells were fixed (10% formalin in PBS) for 20 minutes. Cells were permeablized in PBS 0.1% Triton and blocked with LICOR blocking buffer (50 μL1/well, 90′). The wells were then incubated overnight at 4° C. with SP1 rabbit monoclonal Ab (Thermo Scientific) diluted 1:1000 in LICOR blocking buffer/0.1% Tween-20. Wells which were treated with blocking buffer with Tween but no antibody were used as a background control. Wells were washed with 0.1% Tween-20/PBS and then incubated in goat anti-rabbit IRDye™ 800CW (LICOR Inc.; 1:1000) and DRAQ5 DNA dye (1:2000 for 2 mM stock) diluted in LICOR blocking buffer containing 0.1% Tween-20 and 0.01% SDS for 60 minutes. Cells were washed (50 μl/well, 5′ each) in 0.1% Tween-20/PBS. Plates were scanned on a LICOR Odyssey infrared imaging system. Integrated intensities in the 800 nm channel and 700 nm channel were measured to determine levels of ER and DNA respectively. Percent ER levels were determined as follows: (Integrated intensity 800 nm sample/integrated intensity 700 nm sample)/(Integrated intensity 800 nm untreated cells/integrated intensity 700 nm untreated cells)×100=% ER levels.

[2] = tested on: MCF-7 cells; assay: Breast Cancer Cell Viability Assay (MCF-7, CellTiter-Glo); type: cell-based; settings: 5 days' compound exposure; for IC50: Homo sapiens, MCF7, 120 h
Method: MCF-7 cells were adjusted to a concentration of 20,000 cells per mL in RPMI containing 10% FBS and 20 mM HEPES. 16 microliters of the cell suspension (320 cells) was added to each well of a 384 well plate, and the cells were incubated overnight to allow the cells to adhere. The following day an eleven point, serial semilog dilution of each compound was added to the cells in 16 μL at a final concentration ranging from 0.3-0.000003 μM. After 5 days' compound exposure, 16 μL of CellTiter-GLo (Promega, Madison Wis.) was added to the cells the relative luminescence units (RLUs) of each well was determined CellTiter-Glo added to 32 μL of medium without cells was used to obtain a background value. The Percent viability of each sample was determined as follows: (RLU sample-RLU background/RLU untreated cells-RLU background)×100=% viability.

Compound	Emax [1]	DC50 [1]	IC50 [2]	MCF7 Viability Assay Max Response [2]
O=C(O)/C=C/c1ccc(/C(=C(\c2ccc(F)cc2Cl)C2CCC2)c2ccc3[nH]nc(F)c3c2)cc1 [Compound 89, (E)-3-(4-((E)-2-(2-Chloro-4-fluorophenyl)-2-cyclobutyl-1-(3-fluoro-1H-indazol-5-yl)vinyl)phenyl)acrylic acid]	≥ 40%	≤ 0.1 µM	≤ 0.1 µM	++ (++ = a single % value ≧ 40%)
CCOC(=O)/C=C/c1ccc(/C(=C(/CC)c2ccc(Cl)cc2Cl)c2ccc3[nH]ncc3c2)cc1 [Compound 112, (E)-Ethyl 3-(4-((E)-2-(2,4-dichlorophenyl)-1-(1H-indazol-5-yl)but-1-en-1-yl)phenyl)acrylate]	≥ 40%	≤ 0.1 µM	≤ 0.1 µM	+ (+ = a single % value < 40%)
CC/C(=C(/c1ccc(/C=C/C(=O)O)c(OC)c1)c1ccc2[nH]ncc2c1)c1ccccc1 [Compound 109, (E)-3-(4-((Z)-1-(1H-Indazol-5-yl)-2-phenylbut-1-en-1-yl)-2-methoxyphenyl)acrylic acid]	≥ 40%	–	≤ 0.1 µM	++ (++ = a single % value ≧ 40%)
CC/C(=C(/c1ccc(/C=C/C(=O)O)cc1)c1ccc2[nH]ncc2c1)c1ccc(C)cc1 [Compound 11, (E)-3-(4-((E)-1-(1H-Indazol-5-yl)-2-(p-tolyl)but-1-en-1-yl)phenyl)acrylic acid]	≥ 40%	≤ 0.1 µM	≤ 0.1 µM	++ (++ = a single % value ≧ 40%)
CC/C(=C(/c1ccc(/C=C/C(=O)O)cc1)c1ccc2[nH]ncc2c1F)c1ccc(F)cc1Cl [Compound 61, (E)-3-(4-((E)-2-(2-Chloro-4-fluorophenyl)-1-(4-fluoro-1H-indazol-5-yl)but-1-en-1-yl)phenyl)acrylic acid]	≥ 40%	≤ 0.1 µM	≤ 0.1 µM	++ (++ = a single % value ≧ 40%)
O=C(O)/C=C/c1ccc(/C(=C(\c2ccc(Cl)cc2Cl)C2CC2)c2ccc3[nH]ncc3c2F)cc1 [Compound 123, (E)-3-(4-((E)-2-Cyclopropyl-2-(2,4-dichlorophenyl)-1-(4-fluoro-1H-indazol-5-yl)vinyl)phenyl)acrylic acid]	≥ 40%	≤ 0.1 µM	≤ 0.1 µM	++ (++ = a single % value ≧ 40%)
O=C(O)/C=C/c1ccc(/C(=C(\c2ccc(F)cc2Cl)C2CC2)c2ccc3[nH]ncc3c2)cc1 [Compound 115, (E)-3-(4-((E)-2-(2-Chloro-4-fluorophenyl)-2-cyclopropyl-1-(1H-indazol-5-yl)vinyl)phenyl)acrylic acid]	≥ 40%	≤ 0.1 µM	≤ 0.1 µM	++ (++ = a single % value ≧ 40%)
CC/C(=C(/c1ccc(/C=C/C(=O)O)cc1)c1ccc2[nH]ncc2c1)c1ccccc1OC [Compound 12, (E)-3-(4-((E)-1-(1H-Indazol-5-yl)-2-(2-methoxyphenyl)but-1-en-1-yl)phenyl)acrylic acid]	≥ 40%	–	≤ 0.1 µM	++ (++ = a single % value ≧ 40%)
CC/C(=C(/c1ccc(/C=C/C(=O)O)cc1)c1ccc2[nH]ncc2c1)c1ccc(F)cc1C#N [Compound 138, (E)-3-(4-((E)-2-(2-Cyano-4-fluorophenyl)-1-(1H-indazol-5-yl)but-1-en-1-yl)phenyl)acrylic acid]	≥ 40%	≤ 0.1 µM	≤ 0.1 µM	++ (++ = a single % value ≧ 40%)
COCCC/C(=C(/c1ccc(/C=C/C(=O)O)cc1)c1ccc2[nH]ncc2c1)c1ccccc1 [Compound 80, (E)-3-(4-((E)-1-(1H-Indazol-5-yl)-5-methoxy-2-phenylpent-1-en-1-yl)phenyl)acrylic acid]	≥ 40%	≤ 0.1 µM	> 0.1 µM	++ (++ = a single % value ≧ 40%)

Now from value to molecule, other results behind:

Emax [1]	DC50 [1]	IC50 [2]	Compound	MCF7 Viability Assay Max Response [2]
≥ 40%	≤ 0.1 µM	≤ 0.1 µM	CC/C(=C(/c1ccc(/C=C/C(=O)O)cc1)c1ccc2[nH]ncc2c1)c1ccc(C(F)(F)F)cc1C#N [Compound 139, (E)-3-(4-((E)-2-(2-Cyano-4-(trifluoromethyl)phenyl)-1-(1H-indazol-5-yl)but-1-en-1-yl)phenyl)acrylic acid]	++ (++ = a single % value ≧ 40%)
≥ 40%	≤ 0.1 µM	≤ 0.1 µM	CC/C(=C(/c1ccc(/C=C/C(=O)O)cc1)c1cc(C)c2[nH]ncc2c1)c1ccccc1 [Compound 37, (E)-3-(4-((E)-1-(7-Methyl-1H-indazol-5-yl)-2-phenylbut-1-en-1-yl)phenyl)acrylic acid]	++ (++ = a single % value ≧ 40%)
≥ 40%	≤ 0.1 µM	≤ 0.1 µM	CC/C(=C(/c1ccc(/C=C/C(=O)O)cc1)c1ccc2c(cnn2C)c1)c1ccccc1Cl [Compound 145, (E)-3-(4-((E)-2-(2-Chlorophenyl)-1-(1-methyl-1H-indazol-5-yl)but-1-en-1-yl)phenyl)acrylic acid]	++ (++ = a single % value ≧ 40%)
≥ 40%	≤ 0.1 µM	≤ 0.1 µM	O=C(O)/C=C/c1ccc(/C(=C(\c2ccccc2)C2CC2)c2ccc3[nH]ncc3c2F)cc1 [Compound 75, (E)-3-(4-((E)-2-Cyclopropyl-1-(4-fluoro-1H-indazol-5-yl)-2-phenylvinyl)phenyl)acrylic acid]	++ (++ = a single % value ≧ 40%)
≥ 40%	≤ 0.1 µM	≤ 0.1 µM	CC/C(=C(/c1ccc(/C=C/C(=O)O)cc1)c1ccc2[nH]ncc2c1)c1ccc(Cl)cc1C#N [Compound 137, (E)-3-(4-((E)-2-(4-Chloro-2-cyanophenyl)-1-(1H-indazol-5-yl)but-1-en-1-yl)phenyl)acrylic acid]	++ (++ = a single % value ≧ 40%)
≥ 40%	≤ 0.1 µM	≤ 0.1 µM	CC(C)/C(=C(/c1ccc(/C=C/C(=O)O)cc1)c1ccc2[nH]ncc2c1)c1ccccc1 [Compound 55, (E)-3-(4-((E)-1-(1H-Indazol-5-yl)-3-methyl-2-phenylbut-1-en-1-yl)phenyl)acrylic acid]	++ (++ = a single % value ≧ 40%)
≥ 40%	≤ 0.1 µM	≤ 0.1 µM	CC/C(=C(/c1ccc(/C=C/C(=O)O)cc1)c1ccc2[nH]ncc2c1)c1cc(F)ccc1Cl [Compound 33, (E)-3-(4-((E)-2-(2-Chloro-5-fluorophenyl)-1-(1H-indazol-5-yl)but-1-en-1-yl)phenyl)acrylic acid]	++ (++ = a single % value ≧ 40%)
≥ 40%	≤ 0.1 µM	≤ 0.1 µM	Cc1cc(Cl)ccc1/C(=C(\c1ccc(/C=C/C(=O)O)cc1)c1ccc2[nH]ncc2c1F)C1CC1 [Compound 72, (E)-3-(4-((E)-2-(4-Chloro-2-methylphenyl)-2-cyclopropyl-1-(4-fluoro-1H-indazol-5-yl)vinyl)phenyl)acrylic acid]	++ (++ = a single % value ≧ 40%)

From patent publication US8455534B2, “Estrogen receptor modulators and uses thereof” (Aragon Pharmaceuticals, Inc., priority 2010, dated 2013)
